The results in this text go back to the NIST ThermoML archive (doi:10.1016/j.jct.2016.10.006).

Numbers after ± are expanded uncertainties.

For data set [1] the following is noted: Crystal; DTA.
Data set [2] can be described thus: Molar enthalpy of transition or fusion. As to conditions: Crystal; DSC.

Turning to `Cn1cnc([N+](=O)[O-])c1Cl` [5-chloro-1-methyl-4-nitroimidazole], the Normal melting temperature in data set [1] was 148.20 ± 1.1 °C. In addition, the “Molar enthalpy of transition or fusion” value in data set [2] was 5.36 ± 0.222 kcal/mol.
